Here are results for 8 molecules from patent publication US10106550B2, “Aza-phenalene-3-ketone derivative, preparation method thereof, and its application as PARP inhibitor” (SUZHOU KANGRUN PHARMACEUTICALS INC., priority 2015, dated 2018).

The target in series [1] is PARP1 (Homo sapiens (Human), UniProt P09874). Put plainly: PARP1 inhibitory activity, Universal PARP colorimetric assay kit (Trevigen). In kind it is biochemical. Particulars: for IC50: PARP1. The source says:
1. Measuring PARP1 Inhibitory Activity
1.1 Materials and Methods
Universal PARP colorimetric assay kit (US Trevigen company)

Series [2] is described as follows: Preliminary pharmacokinetics study in SD rats (single intravenous injection or oral gavage, plasma LC-MS/MS). In kind it is in vivo. Conditions: for AUC(0-inf) / AUC(0-t) / clearance / half-life / Vd / bioavailability / Cmax / Tmax: male, Sprague-Dawley (SD), rat; for Vd: read-out: VdSS; for bioavailability: single oral gavage 10 mg/kg vs intravenous 5 mg/kg, read-out: F (oral bioavailability). As for the experimental part:
2. Preliminary Pharmacokinetics Study of Compounds A1, A3, A6 in SD Rats
Healthy SPF SD male rats: 18, weighing 180-220 g, purchased from Shanghai Si Lai Ke Lab Animal Co. Ltd.; animal license no. SOCK (Shanghai) 2013-00016.
Rats were divided into intravenous injection group and oral gavage administration group, and fast for 12-14 hours before experiments. Test compounds' concentration in venous blood was measured. Venous blood was collected by orbital, EDTAK2 anticoagulation. The blood samples were placed on ice, and centrifuged within 30 minutes to separate plasma (centrifugal condition: 5000 rpm/min, 10 min, room temperature). The samples were stored at −80° C. prior to analysis.
Rats in intravenous injection group received a single injection 5 mL/kg of the test compounds. Rats in oral gavage administration group received a single dose 10 mL/kg of the test compounds. Venous blood sample collection times were: before the injection of the test compound (0 hr); after the injection of the test compound: 15 min, 30 min, 1 h, 2 h, 4 h, 6 h, 8 h and 24 h; before the oral gavage administration of the test compound (0 hr) and after the oral gavage administration of the test compounds, 30 min, 1 h, 2 h, 4 h, 6 h, 8 h and 24 h.
Liquid phase conditions: column: Agilent Eclipse plus-C18 (4.6×150 mm, 5.0 μm), mobile phase: 0.1% aqueous formic acid (A)/0.1% formic acid in acetonitrile (B); gradient elution, flow rate: 1.00 mL/min (split v:v=1:1); injection volume: 10 μL.
MS conditions: using electrospray ionization (ESI) and the positive ion mode under multiple reaction monitoring (MRM).
Compounds A1, A3, and A6 were weighed precisely and added to MDSO to prepare 1.00 mg/mL stock solutions. After the stock solutions were diluted to prepare 10000, 5000, 2000, 1000, 500, 100, 50.0, 20.0 ng/mL standard working solutions. Quality control work concentrations include low (30 ng/mL), medium (500 ng/mL), and high (8000 ng/mL).
10 μL plasma sample was added 100 μL verapamil internal standard solution. The mixture was vortexed for 60 seconds and then centrifuged (12000 rpm, 3 min). 70 μL supernatant was transferred to a 96-well plate with equal volume of water in each well. LC-MS/MS analysis was then conducted, and the injection volume was 10 μL.
Data were processed by using WinNonlin 6.3 pharmacokinetic calculation software and non-compartment pharmacokinetic model to obtain major pharmacokinetic parameters.

Where [3] appears, read: plasma, single intravenous injection, 5 mg/kg.
[4] abbreviates: plasma, single oral gavage, 10 mg/kg.
Where [5] appears, read: single intravenous injection, 5 mg/kg.
Where [6] appears, read: in vivo, single intravenous injection, 5 mg/kg.
Setting [7] is: in vivo, single oral gavage, 10 mg/kg.

The structures appear in SMILES notation. “And” between values parts separate entries of the source, which are not always exact repeats. Equal values may be shown once. Read-outs that look alike come from different tables or passages of the source.

As a reminder, the IC50 is the concentration needed to halve the response being measured. High values mean weaker potency, low ones greater potency. For orientation: AUC(0-inf) means the area under the concentration-time curve extrapolated to infinity. Read a low AUC(0-inf) as low exposure. In general, AUC(0-t) refers to exposure summed from dosing to a finite time, without extrapolation to infinity. A high value points to more exposure. A word on the half-life: it is how long it takes for the measured level to halve. The low end stands for fast loss, the high end for slow loss. One may read the bioavailability as the share of a dose that reaches the circulation, judged against a reference dose that is usually intravenous. For orientation: Cmax means the highest concentration seen after dosing. Broadly, the Tmax is the time from dosing to the highest level. A word on the inhibition: it is the relative decrease from the control value, in per cent.

Chain of PARP1 (P09874 whole entry): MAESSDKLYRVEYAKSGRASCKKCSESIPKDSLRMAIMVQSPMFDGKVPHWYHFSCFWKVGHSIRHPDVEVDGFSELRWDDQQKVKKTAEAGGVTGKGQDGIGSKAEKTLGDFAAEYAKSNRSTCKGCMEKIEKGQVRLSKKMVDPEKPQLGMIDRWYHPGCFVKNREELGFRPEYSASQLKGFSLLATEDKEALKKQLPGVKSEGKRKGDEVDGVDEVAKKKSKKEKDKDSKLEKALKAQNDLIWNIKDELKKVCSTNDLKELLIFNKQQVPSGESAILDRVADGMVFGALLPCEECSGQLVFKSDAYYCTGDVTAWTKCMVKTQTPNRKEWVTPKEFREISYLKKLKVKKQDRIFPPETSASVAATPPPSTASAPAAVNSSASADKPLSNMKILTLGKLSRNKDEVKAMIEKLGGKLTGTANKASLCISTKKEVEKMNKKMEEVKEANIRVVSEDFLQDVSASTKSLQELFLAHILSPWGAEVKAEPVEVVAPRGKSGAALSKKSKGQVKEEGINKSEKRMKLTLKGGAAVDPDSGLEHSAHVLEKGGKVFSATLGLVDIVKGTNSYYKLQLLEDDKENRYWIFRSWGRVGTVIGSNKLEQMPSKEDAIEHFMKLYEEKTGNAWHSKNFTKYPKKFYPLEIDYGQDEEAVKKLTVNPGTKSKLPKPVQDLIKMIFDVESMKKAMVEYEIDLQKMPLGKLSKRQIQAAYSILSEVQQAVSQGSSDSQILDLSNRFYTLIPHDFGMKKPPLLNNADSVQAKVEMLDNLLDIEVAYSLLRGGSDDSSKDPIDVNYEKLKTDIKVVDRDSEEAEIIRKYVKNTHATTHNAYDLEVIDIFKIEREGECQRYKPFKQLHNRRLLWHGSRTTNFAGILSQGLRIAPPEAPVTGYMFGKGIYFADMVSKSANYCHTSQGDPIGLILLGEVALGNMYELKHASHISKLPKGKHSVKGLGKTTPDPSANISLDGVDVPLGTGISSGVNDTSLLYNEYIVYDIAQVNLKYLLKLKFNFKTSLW

In turn, `CN1CCN2C(=Nc3cccc4c(=O)[nH]nc2c34)C1` [Compound A3] had an IC50 in series [1] of 130 nM. The “exposure levels (AUC0-4)” value in series [2] is on record as “higher”. In series [2] (setting [3]), this molecule had an AUC(0-inf) of 2290 ± 321 ng·h/mL, an AUC(0-t) of 2290 ± 323 ng·h/mL, a clearance of 38.4 ± 2.5 mL/min/kg and a half-life of 43.3 ± 4.92 min. Further, the Vd in series [2] (setting [3]) was determined as 1.15 ± 0.07 L/kg. For the same molecule, the bioavailability in series [2] (plasma) worked out at 50.5 ± 6.8%. Further, in series [2] (setting [4]), the total exposure AUC(0-inf) came out at 2310 ± 309 ng·h/mL, the AUC(0-t) is 2340 ± 334 ng·h/mL, the Cmax turned out to be 1860 ± 251 ng/mL and the Tmax is 15 min. In series [2] (setting [4]), this molecule showed a half-life of 50.9 ± 3.3 min. In series [2] (setting [5]), the AUMC0-inf was 1175 ± 105 h · h · ng · mL^−1, the AUMC0-t is listed as 1145 ± 120 h · h · ng · mL^−1, the Kel was found to be 1.02 ± 0.034 h⁻¹ and the MRTIV was 30.4 ± 2.4 min. Also, in series [2] (single oral gavage, 10 mg/kg), the AUMC0-inf stood at 2658 ± 308 h · h · ng · mL^−1, the AUMC0-t is reported as 2566 ± 474 h · h · ng · mL^−1, the CL stood at 71.3 ± 7.6 mL·min/kg and the Kel stood at 0.818 ± 0.036 h⁻¹. In series [2] (single oral gavage, 10 mg/kg), this molecule showed an MRTPO of 64.8 ± 5.64 min and a Vz of 5.22 ± 0.81 L/kg.

For `NC(=O)c1cccc(N)c1` [Compound 3-AB, reference compound], the inhibition at 1000 µM in series [1] (PARP1, 1 mM, read-out: inhibition rate) came to 100%.

For the molecule `NC(=O)c1ccc(I)c([N+](=O)[O-])c1` [BSI-201, reference compound], in series [1] (PARP1, 1 μM, read-out: inhibition rate), the inhibition at 1 µM is 22.4%.

The molecule `O=c1[nH]nc2c3c(cccc13)N=C1CN(Cc3ccccc3)CCN12` [Compound A5] displayed an IC50 in series [1] of 58.7 nM. That is a double-digit nanomolar value.

For the molecule `C=C(C)CCN1CCN2C(=Nc3cccc4c(=O)[nH]nc2c34)C1` [Compound A6], inhibition in series [1] was half-maximal at 39.1 nM (IC50). For the same molecule, in series [2], the “exposure levels (AUC0-4)” value is reported as “higher”. Moreover, in series [2] (setting [3]), the AUC(0-inf) was 1040 ± 118 ng·h/mL, the AUC(0-t) is 1000 ± 92 ng·h/mL, the clearance was determined as 83.1 ± 13.3 mL/min/kg and the half-life is 11.5 ± 0.72 min. Moreover, the Vd in series [2] (setting [3]) is 1.1 ± 0.15 L/kg. Besides, the bioavailability in series [2] (plasma) was found to be 13 ± 2.1%. For the same molecule, in series [2] (setting [4]), the AUC(0-inf) worked out at 271 ± 43 ng·h/mL, the exposure AUC(0-t) turned out to be 264 ± 36 ng·h/mL, the Cmax is 259 ± 28 ng/mL and the Tmax amounted to 30 min. This molecule had a half-life in series [2] (setting [4]) of 30.8 ± 2.46 min. In series [2] (setting [5]), this molecule registered an AUMC0-inf of 232 ± 17 h · h · ng · mL^−1, an AUMC0-t of 196 ± 27 h · h · ng · mL^−1, a Kel of 3.64 ± 0.22 h⁻¹ and an MRTIV of 13.3 ± 1.56 min. In series [2] (single oral gavage, 10 mg/kg), this molecule returned an AUMC0-inf of 284 ± 29 h · h · ng · mL^−1, an AUMC0-t of 269 ± 33 h · h · ng · mL^−1, a CL of 626 ± 93 mL·min/kg and a Kel of 1.77 ± 0.28 h⁻¹. Also, in series [2] (single oral gavage, 10 mg/kg), the MRTPO is 70.2 ± 5.4 min and the Vz was 31.2 ± 4.8 L/kg.

In turn, `CC(C)N1CCN2C(=Nc3cccc4c(=O)[nH]nc2c34)C1` [Compound A4] returned an IC50 in series [1] of 111 nM. This counts as sub-micromolar.

`Cl.O=c1[nH]nc2c3c(cccc13)N=C1CNCCN12` [Compound A1] registered an IC50 in series [1] of 90.5 nM. Also, in series [2], the “exposure levels (AUC0-4)” value was “higher”. In series [2] (setting [6]), this molecule showed an AUC(0-inf) of 4280 ± 317 ng·h/mL, an AUC(0-t) of 4250 ± 304 ng·h/mL, a clearance of 19.5 ± 1.4 mL/min/kg and a half-life of 91.8 ± 9.6 min. Further, in series [2] (setting [6]), the Vd was determined as 1.11 ± 0.11 L/kg. Besides, the bioavailability in series [2] (in vivo) is 67.5% and 67.1%. In series [2] (setting [7]), this molecule had an AUC(0-inf) of 5740 ± 841 ng·h/mL, an exposure AUC(0-t) of 5710 ± 802 ng·h/mL, a Cmax of 3120 ± 173 ng/mL and a half-life of 80.4 ± 7.2 min. The Tmax in series [2] (setting [4]) was determined as 30 min. Also, in series [2] (setting [5]), the AUMC0-inf is recorded as 4190 ± 575 h · h · ng · mL^−1, the AUMC0-t is listed as 3790 ± 547 h · h · ng · mL^−1, the Kel was found to be 0.463 ± 0.063 h⁻¹ and the MRTIV amounted to 57.2 ± 6.24 min. Moreover, in series [2] (single oral gavage, 10 mg/kg), the AUMC0-inf is on record as 9200 ± 336 h · h · ng · mL^−1, the AUMC0-t was 8548 ± 240 h · h · ng · mL^−1, the CL was found to be 29.7 ± 3.2 mL·min/kg and the Kel is 0.523 ± 0.046 h⁻¹. In series [2] (single oral gavage, 10 mg/kg), this molecule returned an MRTPO of 93 ± 12 min and a Vz of 3.62 ± 0.37 L/kg.

`CCN1CCN2C(=Nc3cccc4c(=O)[nH]nc2c34)C1` [Compound A2] returned an IC50 in series [1] of 65.7 nM.
